Source: patent publication US6761885B1, “Strain of Lactobacillus plantarum and uses thereof” (SCA Hygiene Products AB, priority 1998, dated 2004)
Read-outs that look alike come from different tables or passages of the source.

How the values were obtained:
LB931 [1] = assay: Sensitivity to antibiotic substances by the SIR system; type: cell-based, Lactobacillus plantarum; set-up: key to Indication: S means sensitive; R strands for resistant; details: for Indication / Zone: SIR system
Procedure: The sensitivity to antibiotic substances was also determined using the SIR system. In table VI below S means sensitive and R strands for resistant.

[2] = test system: Lactobacillus plantarum LB931; assay: MIC of antibiotics by E-test; type: cell-based
Procedure: MIC values of Lactobacillus plantarum LB931 were determined using E-test (Brown et al. J Antimicrob Chemother 1991;27:185-190).

LB931 [3] = assay: MIC test for the spermacidal agent Tergitol NP-9; type: cell-based, Lactobacillus plantarum; details: for Cfu/ml LB931: 18 h, 37 °C, inoculated 1.0×10^7 cfu
Procedure: MIC tests were also carried out for the spermacidal agent Tergitol. LB931 was grown on MRS agar in 5% CO2, 37° C. for 48 h. The bacteria were inoculated in 3 ml MRS broth and incubated for 10 h under the same conditions as previously 1.5% of the culture was reinoculated to 3 ml MRS broth and was incubated under the same conditions for 18 h. NP-9 Tergitol (Sigma, US) Lot 47F0002 was diluted in MRS broth having a temperature of 37° C. (reduced viscosity) to a stock solution of 40%. […] 10 μl bacterial culture was added to each solution. The blank solution was mixed and added to MRS agar plates. The plates were grown in 5% CO2, 37° C. for 48 h for determining the cell density. The rest of the solutions were incubated without mixing in 5% CO2, 37° C. for 18 h. The solution containing 30% and 40% NP-9 were diluted in 37 ° C. MRS broth (reduced viscosity). All solutions were vigorously mixed; diluted in sterile 0.9% NaCl and added to MRS agar plates The plates were incubated in 5% CO2, 37° C. for 48 h for determining cfu/ml.
Inoculated amount of LB931 was 1.0×10^7 .cfu

[4] = Lactiplantibacillus plantarum, LB931, E-test, read-out: MIC

Molecule | Indication (LB931 [1]) | Zone (LB931 [1]) | also measured
NCC[C@H](O)C(=O)N[C@@H]1C[C@H](N)[C@@H](O[C@H]2O[C@H](CN)[C@@H](O)[C@H](O)[C@H]2O)[C@H](O)[C@H]1O[C@H]1O[C@H](CO)[C@@H](O)[C@H](N)[C@H]1O [Amikacin] | S | 30 mm | –
CC1(C)S[C@@H]2[C@H](NC(=O)[C@H](N)c3ccccc3)C(=O)N2[C@H]1C(=O)O [Ampicillin] | – | – | MIC [2, 4]: 0.19 µg/mL
C[C@H]1[C@H](NC(=O)/C(=N\OC(C)(C)C(=O)O)c2csc(N)n2)C(=O)N1S(=O)(=O)O [Aztreonam] | R | 0 mm | –
CC1(C)S[C@@H]2[C@H](NC(=O)Cc3ccccc3)C(=O)N2[C@H]1C(=O)O [Benzylpenicillin] | – | – | MIC [2, 4]: 0.5 µg/mL
CC1=C(C(=O)O)N2C(=O)[C@@H](NC(=O)[C@H](N)c3ccc(O)cc3)[C@H]2SC1 [Cefadroxil] | S | 24 mm | –
CC(=O)OCC1=C(C(=O)O)N2C(=O)[C@@H](NC(=O)Cc3cccs3)[C@H]2SC1 [Cefalotin] | S | 22 mm | –
CO/N=C(\C(=O)N[C@@H]1C(=O)N2C(C(=O)[O-])=C(C[n+]3cccc4c3CCC4)CS[C@H]12)c1csc(N)n1 [Cefipirome] | S | 47 mm | –
CO/N=C(\C(=O)N[C@@H]1C(=O)N2C(C(=O)O)=C(COC(C)=O)CS[C@H]12)c1csc(N)n1 [Cefotaxime] | – | – | MIC [2, 4]: 0.094 µg/mL
CC(C)(O/N=C(\C(=O)N[C@@H]1C(=O)N2C(C(=O)[O-])=C(C[n+]3ccccc3)CS[C@H]12)c1csc(N)n1)C(=O)O [Ceftazidime] | S | 35 mm | –
CO/N=C(\C(=O)N[C@@H]1C(=O)N2C(C(=O)O)=C(COC(N)=O)CS[C@H]12)c1ccco1 [Cefuroxime] | – | – | MIC [2, 4]: 0.38 µg/mL
CCC[C@@H]1C[C@@H](C(=O)N[C@@H]([C@H]2O[C@H](SC)[C@H](O)[C@@H](O)[C@H]2O)[C@H](C)Cl)N(C)C1 [Clindamycin] | S | 35 mm | –
CC[C@H]1OC(=O)[C@H](C)[C@@H](O[C@H]2C[C@@](C)(OC)[C@@H](O)[C@H](C)O2)[C@H](C)[C@@H](O[C@@H]2O[C@H](C)C[C@H](N(C)C)[C@H]2O)[C@](C)(O)C[C@@H](C)C(=O)[C@H](C)[C@@H](O)[C@]1(C)O [Erythromycin] | – | – | MIC [2, 4]: 0.25 µg/mL
C[C@@H](O)[C@H]1C(=O)N2C(C(=O)O)=C(SCCN=CN)C[C@H]12 [Imipenem] | – | – | MIC [2, 4]: 0.016 µg/mL
CC1(C)S[C@@H]2[C@H](/N=C/N3CCCCCC3)C(=O)N2[C@H]1C(=O)O [Mecillinam] | R | 0 mm | –
Cc1ncc([N+](=O)[O-])n1CCO [Metronidazole] | – | – | MIC [2, 4]: > 32 µg/mL
CCn1cc(C(=O)O)c(=O)c2ccc(C)nc21 [Nalidixin acid] | R | 0 mm | Sensitivity of LB931 in words (LB931 [1]): resistant
CCN[C@@H]1C[C@H](N)[C@@H](O[C@H]2OC(CN)=CC[C@H]2N)[C@H](O)[C@H]1O[C@H]1OC[C@](C)(O)[C@H](NC)[C@H]1O [Netilmycin] | R | 0 mm | –
O=C1CN(/N=C/c2ccc([N+](=O)[O-])o2)C(=O)N1 [Nitrofuantin] | S | 36 mm | –
CCn1cc(C(=O)O)c(=O)c2cc(F)c(N3CCNCC3)cc21 [Norfloxacin] | R | 0 mm | Sensitivity of LB931 in words (LB931 [1]): resistant
Cc1onc(-c2ccccc2)c1C(=O)N[C@@H]1C(=O)N2[C@@H]1SC(C)(C)[C@@H]2C(=O)O [Oxacillin] | R | 0 mm | –
CN(C)[C@@H]1C(=O)C(C(N)=O)=C(O)[C@@]2(O)C(=O)C3=C(O)c4c(O)cccc4[C@@](C)(O)[C@H]3C[C@@H]12 [Tetracyclin] | – | – | MIC ([2]; E-test): 2 µg/mL
NC[C@H]1O[C@H](O[C@H]2[C@H](O)[C@@H](O[C@H]3O[C@H](CO)[C@@H](O)[C@H](N)[C@H]3O)[C@H](N)C[C@@H]2N)[C@H](N)C[C@@H]1O [Tobramycin] | S | 32 mm | –
COc1cc(Cc2cnc(N)nc2N)cc(OC)c1OC [Trimetoprim] | – | – | MIC ([2]; E-test): 0.016 µg/mL
CN[C@H](CC(C)C)C(=O)N[C@H]1C(=O)N[C@@H](CC(N)=O)C(=O)N[C@H]2C(=O)N[C@H]3C(=O)N[C@H](C(=O)N[C@H](C(=O)O)c4cc(O)cc(O)c4-c4cc3ccc4O)[C@H](O)c3ccc(c(Cl)c3)Oc3cc2cc(c3O[C@@H]2O[C@H](CO)[C@@H](O)[C@H](O)[C@H]2O[C@H]2C[C@](C)(N)[C@H](O)[C@H](C)O2)Oc2ccc(cc2Cl)[C@H]1O [Vancomycin] | – | – | Sensitivity of LB931 in words [2]: resistant; MIC ([2]; Lactiplantibacillus plantarum, LB931): > 256 µg/mL
Gentamycin | – | – | MIC ([2]; E-test): 0.25 µg/mL
Mecillinam/Ampicillin | S | 41 mm | –
Piperacin/Tazobactam | – | – | MIC ([2]; E-test): 2 µg/mL
Tergitol NP-9 | – | – | Cfu/ml LB931 (LB931 [3]; 1% Tergitol NP-9 in MRS broth): 2.5 × 10^9 Cfu/ml; Cfu/ml LB931 (LB931 [3]; 5% Tergitol NP-9 in MRS broth): 2.5 × 10^9 Cfu/ml; Cfu/ml LB931 (LB931 [3]; 10% Tergitol NP-9 in MRS broth): 1.6 × 10^9 Cfu/ml; Cfu/ml LB931 (LB931 [3]; 20% Tergitol NP-9 in MRS broth): 1.4 × 10^9 Cfu/ml; Cfu/ml LB931 (LB931 [3]; 30% Tergitol NP-9 in MRS broth): 1.0 × 10^9 Cfu/ml; Cfu/ml LB931 (LB931 [3]; 40% Tergitol NP-9 in MRS broth): 6.9 × 10^7 Cfu/ml; Survival of LB931 in tergitol NP-9 in words (LB931 [3]; up to 40% tergitol NP-9): survive well
Tri/sulfamethoazole | S | 43 mm | –
